“Also recorded” adds a separate entry of the source.
Assays:
CHIKV [1] = test: In vivo anti-CHIKV efficacy, CHIKV-induced arthritis mouse model; conditions: for PMN infiltration in footpad (H&E), day 1 / PMN infiltration in footpad (H&E), days 2 and 3: compounds single oral 250 mg/kg, ribavirin 50 mg/kg BID IP
C57BL/6 mice [2] = test: Multiple-dose toxicity in mice; conditions: for Activity scores / behaviour / Creatinine / Histopathology of liver tissues / Histopathology of renal tissues: compound 3 250 mg/kg oral BID 3 days, ribavirin 50 mg/kg BID I.P.
CHIKV [3] = test: CHIKV plaque assay in HEK 293 cells; conditions: Chikungunya virus, HEK293, read-out: EC50, CHIKV inhibition
CHIKV [4] = test: Cell-based anti-attachment assay in Vero cells; conditions: 10 µM
[5] = Pharmacokinetic study in mice
CHIKV replicon = CHIKV replicon inhibition assay (Renilla luciferase) in BHK-21 cells; conditions: Chikungunya virus, BHK-21, 24 h, read-out: EC50, CHIKV replicon inhibition (printed IC50 in Figure 2g,h and b75)
CHIKV [6] = test: CHIKV plaque assay in Vero cells; conditions: Chikungunya virus, read-out: EC50, CHIKV inhibition
[7] = Pharmacokinetic study in rats
C57BL/6 mice [8] = test: Single-dose acute oral toxicity in mice
Sprague Dawley rats = test: ALT and Cr levels in rat plasma samples of the PK study; conditions: single oral 250 mg/kg, plasma at 24, 48, 72 h
[9] = Cytotoxicity assay alongside the replicon assay; conditions: hamster
CHIKV [10] = test: Time-of-addition and time-of-removal assay in Vero cells; conditions: 10 µM, MOI 1
[11] = test system: dengue virus NS5 methyltransferase (MTase); set-up: method as in Loeanurit et al., under review; conditions: targeting the SAM binding site; ref Loeanurit et al., under review; cited from earlier work
CHIKV nsP1 = CHIKV nsP1 (Chikungunya virus, UniProt Q8JUX6); test: MTase-Glo methyltransferase assay; conditions: At 50 µM (method: 100 µM), purified CHIKV nsP1
[12] = C57BL/6, mouse, in vivo, po, 250 mg/kg
[13] = mice, oral 250 mg/kg, mean ± SD
[14] = Sprague Dawley, rat, in vivo, po, 250 mg/kg
[15] = rat, oral 250 mg/kg, mean ± SD, 250 mg/kg
[16] = single oral dose 250 or 500 mg/kg

Chain of CHIKV nsP1 (Q8JUX6 1-535): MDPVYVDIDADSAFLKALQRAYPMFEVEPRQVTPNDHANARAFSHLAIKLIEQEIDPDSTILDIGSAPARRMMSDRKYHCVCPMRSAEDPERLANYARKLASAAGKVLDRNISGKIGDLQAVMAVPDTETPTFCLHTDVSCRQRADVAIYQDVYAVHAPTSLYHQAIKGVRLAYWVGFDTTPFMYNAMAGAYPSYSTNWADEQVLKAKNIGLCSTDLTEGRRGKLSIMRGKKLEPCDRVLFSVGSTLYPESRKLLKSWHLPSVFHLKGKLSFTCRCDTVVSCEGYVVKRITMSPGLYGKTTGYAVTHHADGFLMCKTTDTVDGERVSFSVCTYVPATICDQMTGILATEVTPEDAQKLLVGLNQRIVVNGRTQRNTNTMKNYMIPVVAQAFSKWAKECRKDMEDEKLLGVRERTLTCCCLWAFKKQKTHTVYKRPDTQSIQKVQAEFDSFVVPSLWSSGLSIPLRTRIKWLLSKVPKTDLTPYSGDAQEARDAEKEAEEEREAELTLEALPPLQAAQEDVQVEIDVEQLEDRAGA

In the case of `NC(=O)c1ncn([C@@H]2O[C@H](CO)[C@@H](O)[C@H]2O)n1` [ribavirin, Ribavirin, reference compound], the “PMN infiltration in footpad (H&E), day 1” value (CHIKV [1]) is reported as “reduced PMN infiltration on day 1”, the “PMN infiltration in footpad (H&E), days 2 and 3” value (CHIKV [1]) is reported as “PMN infiltration persisting at moderate levels” and the “Activity scores / behaviour” value (C57BL/6 mice [2]) is reported as “maintained normal behaviour and activity”. The Creatinine (C57BL/6 mice [2]) was “remained within normal limits”, the “Histopathology of liver tissues” value (C57BL/6 mice [2]) was “No pathological abnormalities were observed” and the “Histopathology of renal tissues” value (C57BL/6 mice [2]) was “No pathological abnormalities were observed”.

For `O=c1oc2ccccc2c(O)c1C(c1cccc(Cl)c1)c1c(O)c2ccccc2oc1=O` [compound 3, 3,3′-((3-chlorophenyl)methylene)bis(4-hydroxy-2H-chromen-2-one)], the Body weight (CHIKV [1]; CHIKV-infected mice, single oral 250 mg/kg) was “greater body weight loss than other groups”, the “PMN infiltration in footpad (H&E), day 1” value (CHIKV [1]) was “reduced PMN infiltration on day 1” and the “PMN infiltration in footpad (H&E), days 2 and 3” value (CHIKV [1]) was “PMN infiltration persisting at moderate levels”. The “CHIKV titres in footpad tissues, plaque assay, day 2 post-infection” value (CHIKV [1]; single oral 250 mg/kg) was “significantly reduced CHIKV titres in footpad tissues”, the “Footpad swelling, tissue viral loads and systemic viremia (discussion summary)” value (CHIKV [1]; single oral 250 mg/kg) was “significantly reduced footpad swelling, viral loads in infected tissues, and systemic viremia” and the “Infectious viral titres in footpad tissue, plaque titration, day 3” value (CHIKV [1]; single oral 250 mg/kg) was “maintaining efficacy through day 3 howbeit not significantly”. The “Systemic viremia (plasma CHIKV titres, plaque assay)” value (CHIKV [1]; single oral 250 mg/kg) was “no marked reduction in systemic viremia”, the “Viral RNA levels in footpad tissue (RT-qPCR)” value (CHIKV [1]; single oral 250 mg/kg) was “marked reduction by day 3” and the “Foot swelling and activity vs vehicle group” value (CHIKV [1]; single oral 250 mg/kg at 24 h after infection, transient, not significantly different from vehicle) was “moderate improvement in foot swelling and activity”. For the same molecule, the EC50 (CHIKV [3]) was 3.08 ± 0.45 µM, the “CHIKV inhibition, post-incubation or throughout” value (CHIKV [4]; Vero, MOI 0.1, 24 hpi) was “robust antiviral activity was observed” and the “CHIKV inhibition, pre-treatment, pre-incubation or co-incubation” value (CHIKV [4]; Vero, MOI 0.1, 24 hpi) was “Neither compound exhibited significant inhibition”. The “Effect of compound pre-treatment on viral replication” value (CHIKV [4]; cells treated 1 h before virus) was “enhanced the viral replication”, the AUC [5, 12] was 909 µg·h/mL and the AUC(0-inf) [5, 12] was 909 ± 835 µg·h/mL. It also gave an AUC(0-t) [5, 12] of 909 ± 835 µg·h/mL, a CL/F [5, 12] of 18.3 mL/min/kg and an MRT inf [5, 12] of 10.6 ± 0.728 h. For the same molecule, the MRT last [5, 12] was 10.5 ± 0.646 h, the Tmax [5, 12] was 10 ± 3.46 h and the Cmax ([5]; C57BL/6, mouse, in vivo, po, 250 mg/kg, Cmax, mice, oral 250 mg/kg, mean ± SD) was 68.9 ± 64.1 µg/mL. The half-life ([5]; C57BL/6, mouse, in vivo, po, 250 mg/kg, HL (half-life), mice, oral 250 mg/kg, mean ± SD) was 4.16 h, the Cmax ([5]; C57BL/6, mouse, in vivo, po, 250 mg/kg, Peak plasma concentration (Cmax), mice, oral 250 mg/kg) was 68.9 µg/mL and the “Time within which plasma concentration fell below EC90 and EC50” value ([5]; mice, oral 250 mg/kg) was 24 to 48 h. The “AUC_% Extrap_obs” value [5, 13] was 0.124 ± 0.185%, the Vz_F_obs [5, 13] was 7.963 ± 11.841 L/kg and the “HL (half-life)” value ([5]; mice, oral 250 mg/kg, mean ± SD, 250 mg/kg) was 4.163 ± 0.941 h. For the same molecule, the EC50 (CHIKV replicon) was 6.64 ± 0.86 µM, the EC50 (CHIKV [6]) was 2.85 ± 0.42 µM and the “Serum ALT by day 3 vs vehicle and ribavirin groups” value (C57BL/6 mice [2]; 250 mg/kg oral BID for 3 days) was “markedly elevated”. For the same molecule, the “Activity scores / behaviour” value (C57BL/6 mice [2]) was “activity scores increased by day 2”, the Creatinine (C57BL/6 mice [2]) was “remained within normal limits” and the “Histopathology of liver tissues” value (C57BL/6 mice [2]) was “hepatocellular vacuolization and mononuclear infiltration”. The “Histopathology of renal tissues” value (C57BL/6 mice [2]) was “proximal tubular edema and vacuolization”, the AUC [7, 14] was 1090 µg·h/mL and the AUC(0-inf) [7, 14] was 1100 ± 633 µg·h/mL. The AUC(0-t) [7, 14] was 1090 ± 646 µg·h/mL, the CL/F [7, 14] was 5.65 mL/min/kg and the MRT inf [7, 14] was 14.5 ± 5.73 h. The MRT last [7, 14] was 12.9 ± 5.73 h, the Cmax ([7]; Sprague Dawley, rat, in vivo, po, 250 mg/kg, Cmax, oral 250 mg/kg, mean ± SD) was 80.7 ± 39.9 µg/mL and the half-life ([7]; Sprague Dawley, rat, in vivo, po, 250 mg/kg, HL (half-life), oral 250 mg/kg, mean ± SD) was 7.92 h. The Cmax ([7]; Sprague Dawley, rat, in vivo, po, 250 mg/kg, Peak plasma concentration (Cmax), rats, oral 250 mg/kg) was 80.7 µg/mL, the Tmax ([7]; Sprague Dawley, rat, in vivo, po, 250 mg/kg, Tmax, oral 250 mg/kg, mean ± SD) was 9.33 h and the “AUC_% Extrap_obs” value ([7]; rat, oral 250 mg/kg, mean ± SD) was 2.128 ± 3.659%. The Vz_F_obs ([7]; rat, oral 250 mg/kg, mean ± SD) was 5.672 ± 8.054 L/kg, the “HL (half-life)” value [7, 15] was 7.922 ± 6.558 h and the Tmax [7, 15] was 9.333 ± 2.309 h. For the same molecule, the “Time within which plasma concentration fell below EC90 and EC50” value ([7]; rats, oral 250 mg/kg) was 24 to 48 h, the “Serum ALT on day 1” value (C57BL/6 mice [8]; single oral dose 500 mg/kg, not statistically significant, resolved) was “slight increase” and the Activity scores (C57BL/6 mice [8]; [16]) was “no significant difference in activity scores”. For the same molecule, the Kidney histology (C57BL/6 mice [8]; [16]) was “remained within normal limits”, the “Liver (ALT) and kidney (creatinine) biomarkers” value (C57BL/6 mice [8]; single oral dose 250 or 500 mg/kg, days 1, 3, 7) was “remained within normal limits” and the “Survival and clinical signs over 7 days” value (C57BL/6 mice [8]; single oral dose 250 or 500 mg/kg, mice) was “All animals survived”. For the same molecule, the Liver histology (C57BL/6 mice [8]; single oral dose, day 1, also seen in vehicle-treated animals) was “Mild, transient hepatocellular vacuolization”, the “Tolerability of a single oral dose” value (C57BL/6 mice [8]; up to 500 mg/kg, mice) was “well tolerated” and the “ALT and Cr levels” value (Sprague Dawley rats) was “within normal limits”. The CC50 [9] was 100.5 ± 0.11 µM, the “Time-of-addition time-points significantly different from DMSO control” value (CHIKV [10]) was 3–9 hpi and the “Viral replication in time-of-removal (TOR) assay” value (CHIKV [10]) was “viral replication resumed upon compound removal at 12 hpi”. The “Viral titres in time-of-addition (TOA) assay” value (CHIKV [10]) was “significantly reduced viral titres when added up to 9 hpi; also recorded: persisted when added as late as 12 hours post-infection”, the “Inhibition of dengue virus NS5 methyltransferase” value [11] was “inhibitors of the dengue virus NS5 methyltransferase (MTase)” and the “nsP1 methyltransferase enzymatic activity vs DMSO control” value (CHIKV nsP1) was “significantly inhibited enzymatic activity”.
